# In US12502400B2, “Method of preventing of systemic-to-pulmonary-artery shunt thrombosis” (Chiesi Farmaceutici S.p.A., priority 2017, dated 2025):
# Like-named read-outs stand apart in the source and are kept apart here.
# What was measured:
# purified platelets = test: ADP-induced platelet aggregation by light transmission aggregometry (LTA), EC50 for ADP; type: cell-based, human; settings: LTA with fibrinogen
# Method: Purified platelets were suspended to a final concentration of 400,000/μl in platelet buffer containing 145 mM NaCl, 10 mM Hepes, 0.5 mM Na2HPO4, 5 mM KCl, 2 mM MgCl2, 1 mM CaCl2), 0.10% glucose, pH 7.4. […] Human fibrinogen (final concentration 200 μg/ml) was added to the platelet suspensions just prior to activation. Aggregation was assessed using a Chronolog Lumi-Aggregometer (model 540 VS, Chronolog, Havertown, PA) and permitted to proceed for 6 min after the addition of agonist. The results are reported as maximum percent change in light transmittance from baseline with platelet buffer used as a reference.
# We next determine the functional response of platelets from neonates as well as older patients with congenital heart disease to ADP stimulation. This was accomplished by calculating EC50 values for the agonist using isolated platelets in fibrinogen-supplemented buffer.
# [1] = early institution within 12 hours of surgery; cited from earlier work
# [2] = test system: human platelet thrombus formation; test: Human platelet thrombus formation in laser-injured arterioles of avatar mice; type: in vivo, VWFHA1 mutant mice; settings: for Contrast estimate (mean difference in thrombus size pre- and post-administration): linear mixed model; for platelet accumulation at sites of arteriole injury: platelets from neonates and older pediatric CHD patients
# Method: Administration of anesthesia, insertion of venous and arterial catheters, fluorescent labeling of human platelets, and surgical preparation of the cremaster muscle in 12 week old male VWF HA1 mice have been previously described.
# Human platelets (700K/μL) were continuously infused (25 μl/min) through a catheter placed in the ipsilateral femoral artery 2 min prior to and during laser-induced injury to ensure a level of circulating cells equivalent to humans.^33 Injury to the vessel wall of arterioles (40-65 μm diameter) was performed with a pulsed nitrogen dye laser applied through a 20× water-immersion Olympus objective. Human platelet-vessel wall interactions were visualized by fluorescence microscopy using a system equipped with a Yokogawa CSU-22 spinning disk confocal scanner, iXON EM camera, and 488-nm laser line (Revolution XD, Andor Technology, South Windsor, CT) to detect Calcein-AM-labeled cells, respectively. The extent of thrombus formation was assessed for 3 min after injury and the maximal area (μm^2) of coverage determined by off-line analysis (ImagePro Plus, Media Cybernetics, Bethesda, MD).
# A minimum of 5 mice per patient group were studied (2 and 4 arterial segments pre and post-cangrelor per mouse, respectively).
# To compare mean thrombus areas between different treatment groups, we fit linear mixed models with random intercepts for each study animal. Linear mixed models permit comparison of mean differences between treatment groups while also considering the effect of the clustering of the data on the SEs resulting from multiple measurements obtained from each mouse used in intravital studies. In the case of platelet aggregation studies, values are presented as mean±SEM. A 2-tailed Student t test was used for comparisons between control conditions and treatments. Differences with values of P<0.05 were considered statistically significant.
# platelet aggregation = test: Phase 1 PK/PD clinical trial in post-operative neonates with CHD, LTA and microfluidics; type: in vivo, human; settings: infusion 0.5 or 0.25 μg/kg/min for one hour; post-operative neonates with shunt
# Source text: FIG. 7. Pharmacodynamic properties of cangrelor administered to neonates with CHD in the early post-operative period. A phase 1 clinical trial is currently being conducted to assess the drug plasma levels and effects on platelet aggregation using LTA and microfluidics. […] B, microfluidic results under the same conditions as outlined for LTA.
# [3] = cited from earlier work
# [4] = adults with coronary artery disease, cited from earlier work
# [5] = test system: platelets in PPACK-treated whole blood; test: Multichannel microfluidic device, platelet accumulation on collagen under flow; type: cell-based; settings: Homo sapiens, read-out: effective IC50 (surface fluorescence at 300 s)
# Method: Microfluidic devices with 8 individual channels (250 μm wide×60 μm-high) were fabricated in polydimethylsiloxane (PDMS) as previously described. The device was reversibly vacuum-sealed to a glass slide with its flow channels aligned perpendicularly to a patterned type 1 collagen surface (1 mg/ml). To visualize platelet accumulation over time, an Alexa Fluor 488 conjugated, non-function blocking mouse anti-human CD61 (GPIIb/IIIa) antibody was added (1:50 ratio) 7 min prior to performing experiments (0.125 μg/ml final concentration).
# Whole blood from neonates with single ventricle pathology or healthy adults was perfused over the prothrombotic surface at an initial wall shear rate of 100 s^−1 by withdrawal from a single outlet into a syringe pump (Harvard Apparatus Pump 11 Elite, Holliston, MA). Platelet accumulation was visualized (10× objective lens) using an automated inverted microscope system (DMI6000, Leica) equipped with a CCD camera (DFC365FX, Leica). A custom stage insert held three microfluidic devices allowing replicate testing of four conditions. Images were captured in 30 s intervals for a total of 5 min. Platelet fluorescence intensities, which are directly proportional to the total platelet mass were measured and analyzed with Image J software (Image J; NIH, Bethesda, MD). The center 65% of the prothrombotic region was selected for analysis to avoid edge effects. […]
# integrin αIIbβ3 = target: T1, integrin αIIbβ3 (Homo sapiens, UniProt P05106+P08514); test: ADP-induced firm adhesion of platelets to surface-immobilized VWF in flow; type: cell-based; settings: platelets from pediatric CHD patients or healthy adults
# T1 construct: the platelet integrin receptor αIIbβ3 that stabilizes adhesion by engaging with ligands such as VWF; endogenous in cells; host or cells: platelets from pediatric patients with CHD or healthy adults
# Method: A parallel-plate flow chamber was used to assess platelet accumulation on surface-immobilized plasma VWF at a wall shear rate of 1,600s-1.29, 31 In brief, a polyclonal anti-VWF antibody was absorbed overnight (4° C.) to a six-well tissue culture plate. Subsequently, the plate was washed and nonspecific interactions blocked by the addition of TBS containing 3% BSA, pH 7.4 (30 min, 37° C.). Human or murine (VWF^HA1) plasma obtained from heparinized whole blood was added and the plates placed at 37° C. for an additional hour prior to use. Citrated whole blood was then perfused over the reactive substrate for 3 minutes, followed by the addition of platelet buffer lacking CaCl2 for 1 min. The number of platelets attached per unit area was determined by offline analysis (ImagePro Plus, Media Cybernetics, Bethesda, MD) of recorded digital images. For GPIbα inhibition studies, mAb 6D1 (10 μg/ml) was added to anticoagulated human blood for 10 min before use.
# Although GPIbα initiates platelet deposition at arterial shear rates, this adhesive interaction is labile in nature permitting platelets to translocate in response to forces generated by flowing blood. Ultimately it is the platelet integrin receptor αIIbβ3 that stabilizes adhesion by engaging with ligands such as VWF in response to ADP and/or thrombin.
compound,measurement,setting,value
Nc1ncnc2c1ncn2[C@@H]1O[C@H](COP(=O)(O)OP(=O)(O)O)[C@@H](O)[C@H]1O [ADP],EC50,purified platelets; platelets from CHD patients 0-28 days,3.4 ± 0.1 µM
same,EC50,purified platelets; platelets from CHD patients 1-10 years,2.9 ± 0.1 µM
same,EC50,purified platelets; platelets from CHD patients 11-18 years,3.2 ± 0.2 µM
same,EC50,purified platelets; platelets from healthy adults,3.2 ± 0.2 µM
CC(=O)Oc1ccccc1C(=O)O [aspirin],risk of shunt thrombosis and death,[1],reduced the risk of shunt thrombosis and death
CSCCNc1nc(SCCC(F)(F)F)nc2c1ncn2[C@@H]1O[C@H](COP(=O)(O)OP(=O)(O)C(Cl)(Cl)P(=O)(O)O)[C@@H](O)[C@H]1O [cangrelor],Contrast estimate (mean difference in thrombus size pre- and post-administration),[2]; platelets from adults,"3,501 μm2"
same,Contrast estimate (mean difference in thrombus size pre- and post-administration),[2]; platelets from age group 0-28 days,"2,261 μm2"
same,Contrast estimate (mean difference in thrombus size pre- and post-administration),[2]; platelets from age group 1-10 years,"3,314 μm2"
same,Contrast estimate (mean difference in thrombus size pre- and post-administration),[2]; platelets from age group 11-18 years,"3,475 μm2"
same,reduced thrombus size,"[2]; platelets from neonates and older CHD patients, all cases, doses recommended for PCI, P<0.0001",> 45%
same,platelet accumulation at sites of arteriole injury,[2],did not completely prevent platelet accumulation
same,reduction in thrombus size,"[2]; platelets from pediatric cardiac patients, 30 μg/kg bolus then 4 μg/kg/min infusion, P<0.0001",~45%
same,effect on platelet aggregation assessed by LTA and microfluidics,platelet aggregation,efficacy and rapid reversibility
same,"restoration of hemostasis, as assessed by bleeding time",[3]; after cessation of infusion of a supratherapeutic dose,≤ 10 min
same,full platelet function recovery as determined by response to ADP,[3]; after cessation of infusion,≤ 60 min
same,risk of severe bleeding,[4]; PCI,without significantly increasing the risk of severe bleeding
same,ischemic events during PCI,[4],significantly reduce ischemic events
same,IC50,[5]; whole blood from healthy adults,0.00095 µM
same,IC50,[5]; whole blood from neonates with CHD (single ventricle physiology),0.00069 µM
abciximab: function blocking antibody to integrin αIIbβ3,firm adhesion of platelets to surface-immobilized VWF in response to ADP,integrin αIIbβ3,prevent the firm adhesion
same,platelet accumulation at sites of arteriole injury,[2],nearly abrogated platelet-vessel wall interactions
same,abrogated platelet accumulation,"[2]; platelets from pediatric cardiac patients, laser-injured arterioles, P<0.0001",> 90%
